Numbered stars: 1 amine (or outer) side, 2 acyl side, 3 side chain; on linkers, the order of the positions; unused ones are H or OH. Bridge positions count the residues as written; N and C are the ends. Square brackets hold non-standard residues; d marks the D form. Peptide text beside a SMILES is read from it. * marks the point of attachment. hPhe(3-Cl-4-CF3) = N[C@@H](CCc1ccc(C(F)(F)F)c(Cl)c1)C(=O)O; NMePhe(4-Me) = CN[C@@H](Cc1ccc(C)cc1)C(=O)O; X48 = CN([C@@H](CCc1cccnc1)C(=O)[*:2])[*:1]; NMePhe(4-F) = CN[C@@H](Cc1ccc(F)cc1)C(=O)O; NMePhe(2-Me) = CN[C@@H](Cc1ccccc1C)C(=O)O; Abu(4,4,4-F3) = N[C@@H](CC(F)(F)F)C(=O)O; NMeNva(5,5-F2) = CN[C@@H](CCC(F)F)C(=O)O; NMeGly(cPent) = CN[C@H](C(=O)O)C1CCCC1; NMe4Pal = CN[C@@H](Cc1ccncc1)C(=O)O; NMeCha = CN[C@@H](CC1CCCCC1)C(=O)O; NMeChg = CN[C@H](C(=O)O)C1CCCCC1; NMeI = CC[C@H](C)[C@H](NC)C(=O)O; Gly(cPr) = N[C@H](C(=O)O)C1CC1; NMeD = CN[C@@H](CC(=O)O)C(=O)O; NMeL = CN[C@@H](CC(C)C)C(=O)O; NMeV = CN[C@H](C(=O)O)C(C)C; d(β3hA) = C[C@@H](N)CC(=O)O; NMeS = CN[C@@H](CO)C(=O)O; Morpholide = C1CN(*)CCO1; NMeA = CN[C@@H](C)C(=O)O; Piperidide = C1CCN(*)CC1; Pyrrolidide = C1CCN(*)C1; dNMeA = CN[C@H](C)C(=O)O; Ac5c = NC1(C(=O)O)CCCC1; Aze = O=C(O)[C@@H]1CCN1; Ac4c = NC1(C(=O)O)CCC1; Cyclopropyl = C1CC1*; Sar = CNCC(=O)O; Propyl = CCC*
Tested on: Human pancreatic cancer cell line AsPC-1 (G12D mutation Kras)
Assay: AsPC-1 cell growth inhibition (AsPC-1 CGI)
Assay type: cell-based
Details: read-out: AsPC-1 cell growth inhibition, 50% growth inhibitory concentration (IC50 value); 96 hours, CellTiter-Glo, values classified in ranges
Method: Test compounds were serially dilated with dimethyl sulfoxide, and 200 nL was then dispensed to a U-bottom 96-well plate using Labcyte Echo. […] The cell suspension was dispensed to a. plate containing a test compound at 100 μL per well and incubated at 37° C. in a 5% carbon dioxide gas incubator. 96 hours later, 80 μL of CellTiter-Glo (Promega) was added to each well and fluorescence was measured.

Row | Structure (SMILES) | IC50 [nM]
1 | CC[C@H](C)[C@@H]1NC(=O)[C@H](C)N(C)C(=O)C[C@@H](C(=O)N2CCCCC2)N(C)C(=O)[C@H](C(C)C)N(C)C(=O)C2(CCCC2)NC(=O)[C@@H]2CCCN2C(=O)[C@H](CCc2ccc(C(F)(F)F)c(Cl)c2)NC(=O)[C@@H](C)N(C)C(=O)[C@H](Cc2ccc(F)cc2)N(C)C(=O)[C@@H]2CCCN2C(=O)CN(C)C1=O [Compound 1853] ([NMeA]I[Sar]P[NMePhe(4-F)][dNMeA][hPhe(3-Cl-4-CF3)]P[Ac5c][NMeV][NMeD]-Piperidide; lactam N-11) | > 500
2 | CCCOC[C@H]1C(=O)N(C)[C@H](C(=O)N2CCCCC2)CC(=O)N(C)[C@@H](CC(C)C)C(=O)N[C@@H]([C@@H](C)CC)C(=O)N(C)[C@@H](C)C(=O)N2CC[C@H]2C(=O)N(C)[C@@H](CC2CCCCC2)C(=O)N(C)CC(=O)N[C@@H](CCc2ccc(C(F)(F)F)c(Cl)c2)C(=O)N2CCC[C@H]2C(=O)NC2(CCCC2)C(=O)N1C [Compound 1855] ([NMeL]I[NMeA][Aze][NMeCha][Sar][hPhe(3-Cl-4-CF3)]P[Ac5c][NMeS](Propyl)[NMeD]-Piperidide; lactam N-11) | > 500
3 | CC[C@H](C)[C@@H]1NC(=O)[C@H](CC(C)C)N(C)C(=O)C[C@@H](C)NC(=O)[C@H](C2CCCCC2)N(C)C(=O)C2(CCCC2)NC(=O)[C@@H]2CCCN2C(=O)[C@H](CCc2ccc(C(F)(F)F)c(Cl)c2)NC(=O)CN(C)C(=O)[C@H](Cc2ccc(C)cc2)N(C)C(=O)CN(C)C(=O)CN(C)C1=O [Compound 1856] (cyclo([Ac5c][NMeChg][d(β3hA)][NMeL]I[Sar][Sar][NMePhe(4-Me)][Sar][hPhe(3-Cl-4-CF3)]P)) | > 500
4 | CC[C@H](C)[C@@H]1NC(=O)[C@H](CC(C)C)N(C)C(=O)C[C@@H](C(=O)N2CCCCC2)N(C)C(=O)[C@H](COC2CC2)N(C)C(=O)C2(CCCC2)NC(=O)[C@@H]2CCCN2C(=O)[C@H](CCc2ccc(C(F)(F)F)c(Cl)c2)NC(=O)CN(C)C(=O)[C@H](CC2CCCCC2)N(C)C(=O)CN(C)C(=O)CN(C)C1=O [Compound 1857] ([NMeL]I[Sar][Sar][NMeCha][Sar][hPhe(3-Cl-4-CF3)]P[Ac5c][NMeS](Cyclopropyl)[NMeD]-Piperidide; lactam N-11) | > 500
5 | CC[C@H](C)[C@@H]1NC(=O)[C@H](CC(C)C)N(C)C(=O)C[C@@H](C(=O)N(C)C)N(C)C(=O)[C@H]([C@@H](C)CC)N(C)C(=O)C2(CCCC2)NC(=O)[C@@H]2CCCN2C(=O)[C@H](CCc2ccc(C(F)(F)F)c(Cl)c2)NC(=O)CN(C)C(=O)[C@H](CC2CCCCC2)N(C)C(=O)[C@@H]2CCN2C(=O)[C@H](C)N(C)C1=O [Compound 1858] ([NMeL]I[NMeA][Aze][NMeCha][Sar][hPhe(3-Cl-4-CF3)]P[Ac5c][NMeI][NMeD]-NMe2; lactam N-11) | ≤ 20
6 | CC(C)C[C@H]1C(=O)N[C@@H](C2CC2)C(=O)N(C)CC(=O)N(C)CC(=O)N(C)[C@@H](CC2CCCCC2)C(=O)N(C)CC(=O)N[C@@H](CCc2ccc(C(F)(F)F)c(Cl)c2)C(=O)N2CCC[C@H]2C(=O)NC2(CCCC2)C(=O)N(C)[C@@H](C2CCCCC2)C(=O)N(C)[C@H](C(=O)N2CCCCC2)CC(=O)N1C [Compound 1862] ([NMeL][Gly(cPr)][Sar][Sar][NMeCha][Sar][hPhe(3-Cl-4-CF3)]P[Ac5c][NMeChg][NMeD]-Piperidide; lactam N-11) | > 500
7 | CC(C)C[C@H]1C(=O)N[C@@H](CC(F)(F)F)C(=O)N(C)[C@@H](C)C(=O)N2CC[C@H]2C(=O)N(C)[C@@H](CC2CCCCC2)C(=O)N(C)CC(=O)N[C@@H](CCc2ccc(C(F)(F)F)c(Cl)c2)C(=O)N2CCC[C@H]2C(=O)NC2(CCCC2)C(=O)N(C)[C@@H](C(C)C)C(=O)N(C)[C@H](C(=O)N2CCCCC2)CC(=O)N1C [Compound 1864] ([NMeL][Abu(4,4,4-F3)][NMeA][Aze][NMeCha][Sar][hPhe(3-Cl-4-CF3)]P[Ac5c][NMeV][NMeD]-Piperidide; lactam N-11) | > 500
8 | CC[C@H](C)[C@@H]1NC(=O)[C@H](CC(C)C)N(C)C(=O)C[C@@H](C(=O)N(C)C)N(C)C(=O)[C@H]([C@@H](C)CC)N(C)C(=O)C2(CCCC2)NC(=O)[C@@H]2CCCN2C(=O)[C@H](CCc2ccc(C(F)(F)F)c(Cl)c2)NC(=O)CN(C)C(=O)[C@H](CC2CCCCC2)N(C)C(=O)CN(C)C(=O)CN(C)C1=O [Compound 1865] ([NMeL]I[Sar][Sar][NMeCha][Sar][hPhe(3-Cl-4-CF3)]P[Ac5c][NMeI][NMeD]-NMe2; lactam N-11) | ≤ 20
9 | CC[C@H](C)[C@@H]1NC(=O)[C@H](CC(C)C)N(C)C(=O)C[C@@H](C(=O)N2CCOCC2)N(C)C(=O)[C@H](C2CCCCC2)N(C)C(=O)C2(CCC2)NC(=O)[C@@H]2CCCN2C(=O)[C@H](CCc2ccc(C(F)(F)F)c(Cl)c2)NC(=O)CN(C)C(=O)[C@H](CC2CCCCC2)N(C)C(=O)CN(C)C(=O)CN(C)C1=O [Compound 1875] ([NMeL]I[Sar][Sar][NMeCha][Sar][hPhe(3-Cl-4-CF3)]P[Ac4c][NMeChg][NMeD]-Morpholide; lactam N-11) | ≤ 20
10 | CC[C@H](C)[C@@H]1NC(=O)[C@H](CC(C)C)N(C)C(=O)C[C@@H](C(=O)N(C)C)N(C)C(=O)[C@H](C2CCCC2)N(C)C(=O)C2(CCCC2)NC(=O)[C@H](Cc2ccccc2C)N(C)C(=O)[C@H](CCc2ccc(C(F)(F)F)c(Cl)c2)NC(=O)CN(C)C(=O)[C@H](CC2CCCCC2)N(C)C(=O)[C@@H]2CCN2C(=O)[C@H](C)N(C)C1=O [Compound 1880] ([NMeL]I[NMeA][Aze][NMeCha][Sar][hPhe(3-Cl-4-CF3)][NMePhe(2-Me)][Ac5c][NMeGly(cPent)][NMeD]-NMe2; lactam N-11) | > 500
11 | CC[C@H](C)[C@@H]1NC(=O)[C@H](CC(C)C)N(C)C(=O)C[C@@H](C(=O)N(C)C)N(C)C(=O)[C@H]([C@@H](C)CC)N(C)C(=O)C2(CCCC2)NC(=O)[C@H](CCc2cccnc2)N(C)C(=O)[C@H](CCc2ccc(C(F)(F)F)c(Cl)c2)NC(=O)CN(C)C(=O)[C@H](Cc2ccc(C)cc2)N(C)C(=O)[C@@H]2CCN2C(=O)[C@H](C)N(C)C1=O [Compound 1886] ([NMeL]I[NMeA][Aze][NMePhe(4-Me)][Sar][hPhe(3-Cl-4-CF3)][X48][Ac5c][NMeI][NMeD]-NMe2; lactam N-11) | ≤ 20
12 | CC[C@H](C)[C@@H]1NC(=O)[C@H](CC(C)C)N(C)C(=O)C[C@@H](C(=O)N2CCCC2)N(C)C(=O)[C@H](C2CCCCC2)N(C)C(=O)C2(CCC2)NC(=O)[C@@H]2CCCN2C(=O)[C@H](CCc2ccc(C(F)(F)F)c(Cl)c2)NC(=O)CN(C)C(=O)[C@H](CC2CCCCC2)N(C)C(=O)CN(C)C(=O)CN(C)C1=O [Compound 1894] ([NMeL]I[Sar][Sar][NMeCha][Sar][hPhe(3-Cl-4-CF3)]P[Ac4c][NMeChg][NMeD]-Pyrrolidide; lactam N-11) | ≤ 20
13 | CC[C@H](C)[C@@H]1NC(=O)[C@H](CC(C)C)N(C)C(=O)C[C@@H](C(=O)N(C)C)N(C)C(=O)[C@H]([C@@H](C)CC)N(C)C(=O)[C@H](C(C)C)NC(=O)[C@H](Cc2ccncc2)N(C)C(=O)[C@H](CCc2ccc(C(F)(F)F)c(Cl)c2)NC(=O)CN(C)C(=O)[C@H](Cc2ccc(C)cc2)N(C)C(=O)[C@@H]2CCN2C(=O)[C@H](C)N(C)C1=O [Compound 1897] ([NMeL]I[NMeA][Aze][NMePhe(4-Me)][Sar][hPhe(3-Cl-4-CF3)][NMe4Pal]V[NMeI][NMeD]-NMe2; lactam N-11) | > 500
14 | CC[C@H](C)[C@@H]1NC(=O)[C@H](CC(C)C)N(C)C(=O)C[C@@H](C(=O)N(C)C)N(C)C(=O)[C@H]([C@@H](C)CC)N(C)C(=O)C2(CCCC2)NC(=O)[C@H](CCC(F)F)N(C)C(=O)[C@H](CCc2ccc(C(F)(F)F)c(Cl)c2)NC(=O)CN(C)C(=O)[C@H](Cc2ccc(C)cc2)N(C)C(=O)[C@@H]2CCN2C(=O)[C@H](C)N(C)C1=O [Compound 1898] ([NMeL]I[NMeA][Aze][NMePhe(4-Me)][Sar][hPhe(3-Cl-4-CF3)][NMeNva(5,5-F2)][Ac5c][NMeI][NMeD]-NMe2; lactam N-11) | ≤ 20
15 | CC[C@H](C)[C@@H]1NC(=O)[C@H](CC(C)C)N(C)C(=O)C[C@@H](C(=O)N(C)C)N(C)C(=O)[C@H]([C@@H](C)CC)N(C)C(=O)C2(CCCC2)NC(=O)[C@H](Cc2ccncc2)N(C)C(=O)[C@H](CCc2ccc(C(F)(F)F)c(Cl)c2)NC(=O)CN(C)C(=O)[C@H](Cc2ccc(C)cc2)N(C)C(=O)[C@@H]2CCN2C(=O)[C@H](C)N(C)C1=O [Compound 1962] ([NMeL]I[NMeA][Aze][NMePhe(4-Me)][Sar][hPhe(3-Cl-4-CF3)][NMe4Pal][Ac5c][NMeI][NMeD]-NMe2; lactam N-11) | ≤ 20
16 | CC[C@H](C)[C@@H]1NC(=O)[C@H](CC(C)C)N(C)C(=O)C[C@@H](C(=O)N(C)C)N(C)C(=O)[C@H]([C@@H](C)CC)N(C)C(=O)[C@H](C)NC(=O)[C@H](Cc2ccncc2)N(C)C(=O)[C@H](CCc2ccc(C(F)(F)F)c(Cl)c2)NC(=O)CN(C)C(=O)[C@H](Cc2ccc(C)cc2)N(C)C(=O)[C@@H]2CCN2C(=O)[C@H](C)N(C)C1=O [Compound 1973] ([NMeL]I[NMeA][Aze][NMePhe(4-Me)][Sar][hPhe(3-Cl-4-CF3)][NMe4Pal]A[NMeI][NMeD]-NMe2; lactam N-11) | > 500
17 | CC[C@H](C)[C@@H]1NC(=O)[C@H](CC(C)C)N(C)C(=O)C[C@@H](C(=O)N2CCOCC2)N(C)C(=O)[C@H]([C@@H](C)CC)N(C)C(=O)C2(CCCC2)NC(=O)[C@@H]2CCCN2C(=O)[C@H](CCc2ccc(C(F)(F)F)c(Cl)c2)NC(=O)CN(C)C(=O)[C@H](CC2CCCCC2)N(C)C(=O)CN(C)C(=O)CN(C)C1=O [Compound 1979] ([NMeL]I[Sar][Sar][NMeCha][Sar][hPhe(3-Cl-4-CF3)]P[Ac5c][NMeI][NMeD]-Morpholide; lactam N-11) | ≤ 20
18 | CC[C@H](C)[C@@H]1NC(=O)[C@H](CC(C)C)N(C)C(=O)C[C@@H](C(=O)N(C)C)N(C)C(=O)[C@H](C2CCCC2)N(C)C(=O)[C@H](C(C)C)NC(=O)[C@H](Cc2ccncc2)N(C)C(=O)[C@H](CCc2ccc(C(F)(F)F)c(Cl)c2)NC(=O)CN(C)C(=O)[C@H](CC2CCCCC2)N(C)C(=O)[C@@H]2CCN2C(=O)[C@H](C)N(C)C1=O [Compound 1982] ([NMeL]I[NMeA][Aze][NMeCha][Sar][hPhe(3-Cl-4-CF3)][NMe4Pal]V[NMeGly(cPent)][NMeD]-NMe2; lactam N-11) | > 500
